Results: article PMC9046208, “Foldamers reveal and validate therapeutic targets associated with toxic α-synuclein self-assembly” (Nature Communications, 2022)

Columns and labels:
NL5901 = experiment: Motility (activity counts, WMicroTracker ARENA) of C elegans NL5901; format: in vivo; settings: NL5901, 15 µM SK-129 at the larval stage
Experimental: The assay was carried out based on a previous protocol[57] with slight modifications. On day one, N2 and NL5901 strains were synchronized through the bleaching process involving egglay and the incubation of the eggs at an ambient temperature (~23 °C) on a solution of 3 mL NGM media in 60 mm culture plates (CytoOne, USA Scientific, Ocala, FL). The plates were seeded with 300 µL OP50 at an O.D. of 0.5 for 30 h. Simultaneously, a solution of 15 µM SK-129 (Stock solution concentration = 10 mM in DMSO) was made in M9 buffer and added to two sterilized 35 mm NGM solid media plates (Fisher Scientific, Pittsburgh, PA). The plates were already containing 2 mL of NGM solid media and 75 µM Fluorodeoxyuridine (FUDR) to prevent offspring in the worms. On day two, M9 buffer was used to transfer the worms from 60 mm NGM plates into 35 mm FUDR and SK-129 containing solid media plates (Fisher Scientific, Pittsburgh, PA) and incubated up to day three on these plates. On day four, liquid media was prepared according to the previous protocol[69] with some modifications. […] On day five, motility assay was conducted for worms under different conditions in duplicate using a WMicroTracker Arena plate reader (Phylumtech, Argentina) at ~23 °C for 1 h per day over a period of 12 days. […]

[1] = molecular target: T1, αS2 seed-catalyzed aggregation (Homo sapiens, UniProt P37840, DEL15-23); experiment: Seed-catalyzed ThT aggregation assay (10% WT αS seeds), αS2; format: biochemical; settings: αS2, equimolar ratio
T1 construct: made in house
Experimental: Seed-catalyzed αS aggregation assay was performed similarly to a previously described protocol. Briefly, 100 μM monomeric WT αS solution (200 μL, in 1x PBS buffer) was placed into a ThermoMixer (Eppendorf, Hamberg, Germany) and shook for five days at a rate of […] and 37 °C. The solution was sonicated for 10 min and used as αS seeds. The seed-catalyzed aggregation of WT αS/ αS variants was performed by adding αS seeds (10% seeds, αS in monomeric concentration, v/v) into 140 μL of fresh 100 μM WT αS/ αS variants solution and aggregation was started with constant shaking at a rate of […] and 37 °C. The aggregation of proteins was monitored at the indicated times (See the main manuscript) using the above-mentioned method.
The ThT aggregation assay for each protein (WT αS and αS variants) in the presence of SK-129 was carried out the above-mentioned method. SK-129 (from 10 mM stock solution in DMSO) was added at an equimolar ratio (1% DMSO, v/v) to the proteins at the start of the aggregation experiment. The concentration of DMSO was kept constant (1%, v/v) in protein (WT αS and αS variants), control, and protein+molecule solutions. The kinetic profiles of protein aggregation were processed using OriginPro software (Version 9.1). Kinetic curves were fit using a built-in sigmoidal fit in the OriginLab.

αS aggregation = molecular target: T2, αS aggregation (Homo sapiens, UniProt P37840); experiment: SDS-PAGE analysis of soluble and insoluble αS fractions; format: biochemical; settings: 100 µM αS, equimolar SK-129, four days
T2 construct: made in house; host or cells: Escherichia coli BL21(DE3), periplasm
Experimental: The solution of αS (100 µM) in the absence and presence of SK-129 were prepared in the aggregation buffer (20 mM NaCl, 20 mM NaPi, pH 6.5) and kept at 37 °C and constant shaking at 1200 rpm until the aggregation of αS plateaued (four days). The solutions were separated into soluble and insoluble fractions of αS by centrifugation at 22,000 × g for 20 min. Afterwards, 2 x Laemmli protein sample loading buffer (Biorad, Hercules, CA) was added to the fractions and boiled at 95 °C for 5 min and ran on a 12% Mini-PROTEAN precast protein gel (Biorad, Hercules, CA). In addition, we also quantified SDS-PAGE gel band intensities using ImageJ software. The gel-based experiments were repeated three times (n = 3) independently to ensure the reproducibility of the data. All the uncropped gels (from Main manuscript and Supplementary Figures) have been included in the Supplementary Data File as Supplementary Fig. 29.

COC(=O)c1cc(OCC(=O)O)c2cccc(NC(=O)c3cc(OC(C)C)c4cccc(NC(=O)c5cc(OCC(=O)O)c6cccc(NC(=O)c7cc(OC(C)C)c8cccc([N+](=O)[O-])c8n7)c6n5)c4n3)c2n1 [SK-129]
overall activity (motility) (NL5901): significant improvement in the overall activity | effect on seed-catalyzed aggregation [1]: wholly suppressed | αS fraction detected by SDS-PAGE (αS aggregation): predominantly detected in the soluble fraction
